Measured values from US5547982A, “Anti-tumor platinum complexes” (priority 1995, dated 1996).

Tested on: Daudi tumor cell line
Test: Cytotoxicity testing against Daudi cells (killing of 50% of the Daudi cells)
Assay type: cell-based
Settings: 5E9 conjugate versus free agents, conjugate MSR=8.9, read-out: CC50 (concentration of platinum compound which killed 50% of the Daudi cells)

With “ammino[4-succinimidyl -(5-aminopentan-2-one) terephthalic hydrazone] tetrachloro platinum (IV) [AAtC]” the CC50 was 2100 nM.
